In patent US20170037425A1, “METHOD FOR IMPROVING PLANT TRAIT” (SHANGHAI INSTITUTES FOR BIOLOGICAL SCIENCES, CHINESE …, priority 2012, published 2017):

What was measured:
Assay type in all cases: in vivo, Brassica napus L.
[1] = tested on: Brassica; experiment: Growth, biomass and yield of transgenic Brassica; details: for fresh and dry weights vs WT and empty vector control: 4-week-old transgenic Brassica; for plant growth vs WT and empty vector control: 3 weeks
Description: FIG. 14. (A) WT, empty vector control (pHB) and mCherry transgenic Brassica (L1-L3) were germinated and grown for one week in the phytotron under white light (PPFD:250 μmol m^−2s^−1). Then the plants were moved and grown under white light, green light (PFD: 60 μmol m^−2s^−1) or red+blue light (red light PFD; 60 μmol m^−2s^−1, blue light PFD; 10 μmol m^−2s^−1) for another 3 weeks and photos were taken, (B) Comparison of the fresh weights and dry weights of WT and mCherry transgenic Brassica grown under white light, green light or red+blue light for four weeks. Values in the figures are means±SD, for WT, n=10, for transgenic plant transformed with empty vector control pHB and mCherry, data were the averages of three independent lines and 10 plants for each line. **p≦0.01. (C) Net photosynthetic rate of WT and mCherry transgenic Brassica measured under different light qualities. Nine-week-old WT and mCherry transgenic Brassica grown in the phytotron (PPFD: 250 μmol m^−2s^−1) were transferred and treated with different qualities of light for 4 days and net photosynthetic rate was measured. (D) Net photosynthetic rate of WT and mCherry transgenic Brassica grow in the natural field measured under different PPFD as light source. Net photosynthetic rate was measured in situ between 10:00 am and 12:00 pm. […] FIG. 15. (A) Measurement of the fresh weight and dry weight per plant of 7-week-old WT and mCherry transgenic Brassica plants grown in the natural field conditions. Values in the figures are means±SD, n=10. *p≦0.05, **p≦0.01. (B) Comparison of the plant size, silique size, seed size, grain yield per plant and 1000-seed weight at the harvesting time. Values in the figures are means±SD, n=10. *p≦0.05, **p≦0.01. Wild type (WT), transgenic Brassica with empty vector (pHB) and mCherry transgenic Brassica (L1-L3) were germinated in the phytotron under white light (light intensity: 250 μmol m^−2s^−1) for 1 week. Then the plants were transferred and continued to grow under white light, green light (light intensity: 60 μmol m^−2s^−1), red+blue light (intensity of red light: 60 μmol m^−2s^−1; intensity of blue light: 10 μmol m^−2s^−1). The […] were taken three weeks after transfer.

[2] = tested on: Brassica; experiment: Redox metabolites (NAD+/NADH, NADP+/NADPH, GSSG/GSH, ASC/DHA) in transgenic Brassica leaves; details: transgenic Brassica transferred from red+blue light to white light
Protocol: Leaves were from the 4-week-old Brassica plants grown under white light or red+blue light, or 2 h after being switched from red+blue light to white light. Extraction of metabolites from leaves and measurement of NAD^+/NADH, NADP^+/NADPH, GSSG/GSH and ASC/DHA follows G. Queval, G. Noctor, Anal Biochem. 363, 58 (2007).

[3] = tested on: Brassica; experiment: Stomatal conductance and intercellular CO2 concentration of transgenic Brassica
Protocol: Gas exchange was measured using photosynthetic infrared gas analysis system (LI-6400, Li-Cor Inc, Lincoln, Nebr., USA). The net photosynthetic rate (Pn) and stomatal conductance (Gs) was measured. Sunlight and artificial light were used as artificial light sources for measurement. The ambient CO2 during the measurements was controlled at 400 μmol mol^−1. The ambient temperature was controlled at the temperature for plant growth. Six leaves were measured for each line of plant.

[4] = tested on: Rubisco; experiment: Rubisco activity assay in transgenic Brassica leaves
Protocol: Ribulose-1,5-bisphosphate carboxylase/oxygenase (Rubisco) carboxylase activity assay: Soluble proteins were extracted from fresh leaves with extraction buffer (50 mM Tris-HCl pH 7.8, 1 mM EDTA, 50 mM NaCl, 2 mM β-Mercaptoethanol). The homogenate was centrifuged (12,000 g for 6 min at 4° C.) and the supernatant was used for Rubisco activity assay. Carboxylase activity of Rubisco was measured with ^14C-labelled method as described in (Wang Z Y, Snyder G W, Esau B D, Portis A R, Ogren W L (1992) Species-dependent variation in the interaction of substrate-bound ribulose-1,5-bisphosphate carboxylase/oxygenase (Rubisco) and Rubisco activase. Plant Physiology 100: 1858-1862).

[5] = tested on: Brassica; experiment: Soluble protein content of transgenic Brassica; details: three lines
Protocol: In this invention, three lines of mCherry transgenic Brassica were selected and the content of soluble protein was measured and compared with that in WT. The content of soluble protein in mCherry transgenic Brassica was increased.

[6] = tested on: Brassica; experiment: Leaf absorption spectrum of transgenic Brassica; details: different light intensities
Protocol: Reflectance and transmittance of Brassica leaves under different light intensities were measured using fiber optic spectrometer with an integrating sphere (Ocean Optics, Britain). The absorbance of the leaves under different light intensities was calculated with the equation: absorbance=100%) (without leaf)−transmittance−reflectance.

[7] = tested on: Brassica; experiment: Chlorophyll fluorescence and P700 oxidation-reduction in transgenic Brassica
Protocol: Electron transfer efficiency of leaves was measured by chlorophyll fluorescence. The change of chlorophyll fluorescence parameter was monitored with PAM-2000 fluorometer (Walz, Effeltrich, Germany). Electron transfer efficiency of leaves in response to light was measured after 30-min-dark adaption, Fo represents minimum PSII fluorescence after measuring light is turned on. Fm represents maximum PSII fluorescence after a saturating pulse of white light is turned on. The photochemical efficiency of PSII was calculated with the equation: ΦPSII=(Fm′−Fs)/Fm′ (Genty, B., Briantais, J. M., Baker, N. R. (1989). The relationship between the quantum yield of photosynthetic electron transport and quenching of Chl fluorescence. Biochimica et Biophysica Acta, 990, 87-92). The excitation pressure of chlorophyll was calculated with the equation: 1−qL=1−(Fm′−Fs)/(Fm′−Fo)×Fo′/Fs (Kramer, D. M., Johnson, G., Kiirats, O., Edwards, G. E. (2004) New fluorescence parameters for the determination of Q(A) redox state and excitation energy fluxes. Photosynthesis Research, 79, 209-218).
PAM chlorophyll fluorometer with ED-P700 DW-E light absorb unit was used to measure the change of the light absorb at 810-830 nm, then the change of oxidation-reduction state of P700 was obtained. […]

[8] = transgenic Brassica, young seedling stage

## mCherry: red fluorescent protein, amino acid sequence SEQ ID NO: 2
[1]; red+blue light
  fresh and dry weights vs WT and empty vector control: no significant difference
[1]; white or green light
  fresh and dry weights vs WT and empty vector control: significantly increased
[1]; transgenic Brassica
  1000-seed weight, increase vs WT: 25%
  grain yield per plant, increase vs WT: 30 to 100%
[1]; transgenic Brassica at harvest
  1000-seed weight vs WT (in words): increased
  grain yield per plant vs WT (in words): increased
  seed size vs WT: significantly increased
[1]; transgenic Brassica, natural field conditions
  growth and biomass accumulation: stimulated the growth and biomass accumulation
[1]; transgenic Brassica, red+blue light
  plant growth vs WT and empty vector control: No significant difference
[1]; transgenic Brassica, white light and green light
  plant growth vs WT and empty vector control: grew better than WT and empty vector control plants
[1]; [8]
  dry weight, increase vs WT: 78%
  fresh weight, increase vs WT: 66.7%
[2]
  content of reduced metabolites or ratio of reduced to oxidized metabolites (NADH, NADPH, ascorbate, GSH): increased
[3]; transgenic Brassica
  stomatal conductance (Gs) vs WT: increased
[3]; transgenic Brassica leaves
  intercellular CO2 concentration (Ci): did not lead to the decrease
[4]
  Rubisco activity and Rubisco activation state: increased
[5]
  content of soluble protein vs WT: increased
[6]
  light energy absorbed by leaves: significantly increased
[7]; transgenic Brassica leaves
  initial rate of P700^+ reduction (PSI cyclic electron transport) vs WT: much higher
[7]; transgenic Brassica transferred from red+blue light to white light
  photochemical efficiency of PSII (ΦPSII): increased
